The source of these data is US4430355A, “Condensed isothiazolo-3 (2H)-one-1-1-dioxides” (priority 1977, dated 1984).

Series [1] is described as follows: Determination of the threshold concentration (taste testers, Schutz and Pilgrim method). More on the design: key: mean of 5 testers; 0 = not sweet, 3 = very sweet. As for the experimental part: From novel compounds A, B, C, D, E and F and from known comparison compounds U, V and W aqueous solutions in concentrations of 1:12500, 1:25000, 1:50000, 1:100000 and 1:200000 were prepared and evaluated by each of 5 taste testers according to the following criteria: Very sweet (=3 points); medium sweet (=2 points), slightly sweet (=1 point) and not sweet (=0 point). The tests were carried out according to the method of H. G. Schutz and F. J. Pilgrim [Food Research 22, 206 (1957)]. The dilution with perceptible sweetness was defined as the concentration at which the average value reached the evaluation points 1.0 or higher.

Series [2] is described as follows: Determination of the relative sweetening power in comparison to saccharose (taste testers, 3% saccharose solution). The text has this:
The relative sweetening power (often also defined as degree of sweetness) of sweetening agents in comparison to saccharose (cane sugar) varies with the concentrations within wide limits. Thus, in the usual concentrations (corresponding to a 2-10% solution of saccharose) the relative sweetening power of saccharin varies from 200 to 700. Therefore, for the determination of the relative sweetening power of the above-mentioned compounds a 3% aqueous solution of saccharose was always used for comparison.
The further determination of the relative sweetening power was continued according to the methods of R. Pauli [Chemiker Zeitung 44, 744 (1920)] and T. Paul [Chemiker-Zeitung 45 38 (1921)]. Each test series was tested by 4 taste testers.

A short description of series [3]: Evaluation of taste quality. The text has this: They often have a side-taste or after-taste. Novel compounds A to F are, however, characterized by a very pure sweet taste.
Series [4] has as its system mouse. Put plainly: Orienting acute toxicity, oral, mouse. Conditions: 6 animals. Format: in vivo. The method, then:
The acute toxicity was determined after oral administration to male and female mice and to male and female rats. The substances were given in an aqueous solution or as a suspension in tylose.

For series [5], the system named is Salmonella typhimurium TA 98, TA 100, TA 1535, TA 1537, TA 1538. Put plainly: AMES-system, test for mutagenic effects, Salmonella typhimurium. Format: cell-based. The method, then: Compounds C and D were tested in the AMES-system [Mutation Research 31, 347-364 (1975)] with regard to their mutagenic properties. In order to show the whole spectrum of induced molecular DNA-damages (base substitutions, frame-shift mutations, deletions) the auxotrophic bacterial strains Salmonella typhimurium TA 98, TA 100 and Escherichia coli WP 2 (P) were used as genetic indicators. The strains Salmonella typhimurium TA 1535, TA 1537 and TA 1538 were additionally used in the test of compound C.
The test for all microorganisms were carried out in a way such that the influence of a microsomal enzyme system, together with the corresponding co-factors, could be tested with regard to the test substance, and to determine the differences in enzyme induction. The tests were performed without an activating system and in the presence of an activating system. For the in vitro-activation, S-9 supernatants (fraction of the endoplasmatic reticulum) of normal, i.e. not pre-treated rats and of Aroclor 1254 (500 mg/kg) induced rats were used. From the S-9 induced fraction, 3 different concentration levels were tested.
(§1) The substance concentrations of compound C were 0.1 and 0.5 mgm/plate and the concentrations of compound D were 5, 10, 15 and 20 mg/plate.

In series [6] the test system is Escherichia coli WP 2 (P). In words: AMES-system, test for mutagenic effects, Escherichia coli. Format: cell-based. The method, then: In order to show the whole spectrum of induced molecular DNA-damages (base substitutions, frame-shift mutations, deletions) the auxotrophic bacterial strains Salmonella typhimurium TA 98, TA 100 and Escherichia coli WP 2 (P) were used as genetic indicators.
The test for all microorganisms were carried out in a way such that the influence of a microsomal enzyme system, together with the corresponding co-factors, could be tested with regard to the test substance, and to determine the differences in enzyme induction. The tests were performed without an activating system and in the presence of an activating system. […] From the S-9 induced fraction, 3 different concentration levels were tested.

Series [7] concerns microorganism growth. In words: Series dilution essay, inhibition of the microorganism growth. Format: cell-based. To be noted: highest dosages (C 0.5 mgm/plate, D 20 mg/plate). The method, then: as §1
For series [8] the following is noted: higher dosage levels; cited from earlier work.
For series [9] the following is noted: value given on page 6 of German Offenlegungsschrift 2,534,689; cited from earlier work.
Where [10] appears, read: compared with 3% aqueous solution of saccharose.

Like-named read-outs stand apart in the source and are kept apart here.

As for `Cc1cc2c(o1)S(=O)(=O)NC2=O` [A, 5-Methyl-furo[3,2-d]isothiazole-3-(2H)-one-1,1-dioxide], the “Average Value of Evaluation Points” value in series [1] (concentration 1:12500) is 1.4. The “Average Value of Evaluation Points” value in [1] (concentration 1:25000) was determined as 0.2. For the same compound, the “Relative Sweetening Power (Saccharose = 1)” value (“Relative Sweetening Power” for short) in series [2] (setting [10]) is recorded as 150. The “taste quality compared with saccharose (cane sugar)” value in series [3] was “achieve the taste quality of saccharose”. Besides, in series [4] (1000 mgm/kg oral), the “Animals which died within the observation time, 1 day” value is on record as 0 animals and the “Animals which died within the observation time, 7 days” value came out at 0 animals.

In the case of `Cc1cc2c(s1)S(=O)(=O)NC2=O` [B, 5-Methyl-thieno[3,2-d]isothiazole-3(2H)-one-1,1-dioxide], the “Average Value of Evaluation Points” value was 2.2 in series [1] (concentration 1:25000), 1.4 in [1] (concentration 1:50000) and 0.2 in series [1] (concentration 1:100000). Besides, the “Relative Sweetening Power” value in series [2] (setting [10]) is on record as 550. The “Animals which died within the observation time, 1 day” value in series [4] (5000 mgm/kg oral) is listed as 0 animals. Besides, in [4] (5000 mgm/kg oral), the “Animals which died within the observation time, 7 days” value is given as 0 animals.

Regarding `Cc1cc2c(s1)S(=O)(=O)NC2=O.[Ca]` [D, 5-Methyl-thieno[3,2-d]isothiazole-3(2H)-one-1,1-dioxide calcium salt], the “Average Value of Evaluation Points” value was determined as 1.8 in series [1] (concentration 1:25000), 1.0 in series [1] (concentration 1:50000) and 0.0 in series [1] (concentration 1:100000). For the same compound, the “Relative Sweetening Power” value in series [2] (setting [10]) is given as 500. Also, the “Animals which died within the observation time, 1 day” value in series [4] (5000 mgm/kg oral) worked out at 0 animals. Further, the “Animals which died within the observation time, 7 days” value in [4] (5000 mgm/kg oral) is on record as 0 animals. Moreover, the “release of base substitutions” value in [5] (S. typhimurium TA 1535, TA 100) is “do not release base substitutions”; in series [6] (E. coli WP2 (P)), “do not release base substitutions”. Moreover, the “release of frame-shift mutations” value in series [5] (S. typhimurium TA 1537, TA 1538, TA 98) is on record as “do not release”. For the same compound, the “increase in the spontaneous mutation rate” value in series [5] (Salmonella strains, C 0.1 and 0.5 mgm/plate, D 5-20 mg/plate, with and without activating system) is “did not lead to an increase”; in [6] (E. coli WP 2 (P), C 0.1 and 0.5 mgm/plate, D 5-20 mg/plate, with and without activating system) it was “did not lead to an increase”. For the same compound, the “colonies counted on the substance plates” value in series [5] (all test strains) is on record as “within the spontaneous range”. The “effect of the enzyme induction and of the activating fraction on the reverse mutation rate” value in series [5] (all tested strains, S-9 of normal and Aroclor 1254 induced rats) is on record as “not detectable”. Further, in [5] (conclusion over all tested strains), the mutagenic potential entry is “do not indicate a mutagenic potential”. For the same compound, the “inhibition of the microorganism growth” value in series [7] is listed as “did not show any inhibition”.

With `Cc1sc2c(c1C)C(=O)NS2(=O)=O` [E, 4,5-Dimethyl-thieno[3,2-d]isothiazole-3(2H)-one-1,1-dioxide], the “Average Value of Evaluation Points” value was 2.2 in series [1] (concentration 1:50000), 1.6 in series [1] (concentration 1:100000) and 0.4 in [1] (concentration 1:200000). In addition, the “Relative Sweetening Power” value in series [2] (setting [10]) was determined as 1050. The “Animals which died within the observation time, 1 day” value in series [4] (1000 mgm/kg oral) is reported as 0 animals. Moreover, the “Animals which died within the observation time, 7 days” value in series [4] (1000 mgm/kg oral) came out at 0 animals.

With `Cc1sc2c(c1C)C(=O)NS2(=O)=O.[Na]` [F, 4,5-Dimethyl-thieno[3,2-d]isothiazole-3(2H)-one-1,1-dioxide sodium salt], the “Average Value of Evaluation Points” value was found to be 2.0 in series [1] (concentration 1:50000), 1.4 in [1] (concentration 1:100000) and 0.2 in series [1] (concentration 1:200000). The “Relative Sweetening Power” value in series [2] (setting [10]) is listed as 1000.

Consider `O=S(=O)(O)NC1CCCCC1` [U, Cyclamate, reference compound], for which the “Average Value of Evaluation Points” value in series [1] (concentration 1:12500) is 0.4. Also, the “Relative Sweetening Power” value in [2] worked out at 60. Further, in [8], the “safety as sweetening agent” value was “not entirely safe”.

Regarding `O=C1NS(=O)(=O)c2ccccc21.[Na]` [W, Saccharin sodium, reference compound], the “Average Value of Evaluation Points” value in series [1] (concentration 1:25000) is 2.2; in series [1] (concentration 1:50000) it was 1.2; in series [1] (concentration 1:100000), 0.0. Moreover, the “Relative Sweetening Power” value in series [2] (setting [10]) is 550.

Consider `O=C1NS(=O)(=O)c2sccc21` [X, Thieno[3,2-d]isothiazole-3(2H)-one-1,1-dioxide], for which the “Relative Sweetening Power” value in series [9] was 350.
